# Tested on: HFD-fed C57BL/6J mice
# Test: Untargeted cortex LC-MS metabolomics
# Assay type: in vivo
# Details: cortex of HFD-fed mice
# Experimental: Plasma and Cortex LC-MS Metabolomics. The left and right sides of the cortex were pooled and ground using liquid nitrogen. Cortex samples (approximately 30 mg) were extracted as previously described with slight modifications. Tissues were homogenized with 600 μL of cold 80% acetonitrile with 0.1% formic acid containing 0.2 μg/mL of dopamine-d4 (Sigma-Aldrich, St Louis, MO, USA) and 0.2 μg/mL of chlorpropamide (Sigma-Aldrich, St Louis, MO, USA) using a counter-top bullet blender for 2 min and centrifuged at 20 000 rpm for 10 minutes. Supernatants were transferred to high performance liquid chromatography (HPLC) vials for analysis.
# LC-high-resolution mass spectrometry/MS. Data dependent acquisition in both negative and positive ion mode was conducted using a Shimadzu Nexera UPLC system coupled to an AB SCIEX TripleTOF 5600 mass spectrometer (AB SCIEX, Toronto, Canada). Chromatographic separation was conducted using an Inertsil Phenyl-3 column (4.6×150 mm, 100 Å, 5 μm; GL Sciences, Tokyo, Japan). Spray voltage was −4200 V for negative ion mode and 4500 V for positive ion mode acquisition. The injection volume was 3 μL. Metabolite identifications were performed using Progenesis QI software (V2.4.6911) with METLIN plugin V1.0.6499 (NonLinear Dynamics, United Kingdom). Progenesis QI was used for peak picking, retention time correction, data normalization, peak alignment, and metabolite annotations. Metabolites were detected in both ion modes; the one with the lowest coefficient of variation of the QC was kept.
structure (smiles),measurement,value
"COc1cc(O)c(CC=C(C)C)c(O)c1-c1cc(-c2ccc(O)cc2)n(C)n1 [XP, 4-(5-(4-hydroxyphenyl)-1-methyl-1H-pyrazol-3-yl)-5-methoxy-2-(3-methylbut-2-en-1-yl)benzene-1,3-diol]","Ion intensities, Mean: 1,2-DIPALMITOYL-SN-GLYCEROL",1513.84
same,"Ion intensities, Mean: 1-Arachidonoyl-glycerophosphoinositol",546.96
same,"Ion intensities, Mean: 1-Palmitoyl-2-linoleoyl PE",1180.62
same,"Ion intensities, Mean: 2-Pyrrolidinone",1222.06
same,"Ion intensities, Mean: 2′-DEOXYURIDINE 5′-MONOPHOSPHATE",594.66
same,"Ion intensities, Mean: 3-Methyl-L-histidine",518.49
same,"Ion intensities, Mean: 3-PHOSPHO-GLYCERIC ACID",2370.20
same,"Ion intensities, Mean: 5-Acetylamino-6-amino-3-methyluracil",52.73
same,"Ion intensities, Mean: 5-Methylcytidine",9448.98
same,"Ion intensities, Mean: 12-HYDROXYDODECANOIC-ACID",2251.29
same,"Ion intensities, Mean: 20-Hydroxy-PGE2",7093.39
same,"Ion intensities, Mean: 27-Hydroxycholesterol",20090.45
same,"Ion intensities, Mean: ADENOSINE",49823.74
same,"Ion intensities, Mean: ADENOSINE 5′-DIPHOSPHORIBOSE",4312.21
same,"Ion intensities, Mean: ADENOSINE 5′-MONOPHOSPHATE",90459.20
same,"Ion intensities, Mean: ADENOSINE-5′-DIPHOSPHOGLUCOSE",1755.31
same,"Ion intensities, Mean: ADP",3426.97
same,"Ion intensities, Mean: AMINOADIPATE",331.86
same,"Ion intensities, Mean: ASCORBATE",1431.15
same,"Ion intensities, Mean: ASPARTATE",1333.10
same,"Ion intensities, Mean: Acetylcarnitine",12649.68
same,"Ion intensities, Mean: Acetylcholine",1745.95
same,"Ion intensities, Mean: Adenine",1949.85
same,"Ion intensities, Mean: Adenylosuccinate",1016.78
same,"Ion intensities, Mean: Adenylsuccinic acid",3152.34
same,"Ion intensities, Mean: Arachidonic acid",20901.19
same,"Ion intensities, Mean: Arachidonic acid ethyl ester",351.43
same,"Ion intensities, Mean: Arginine",2112.34
same,"Ion intensities, Mean: Aspartic acid",8729.17
same,"Ion intensities, Mean: BILIVERDIN",167.09
same,"Ion intensities, Mean: CARNITINE",14584.14
same,"Ion intensities, Mean: CDP-Ethanolamine",571.19
same,"Ion intensities, Mean: CHENODEOXYCHOLATE",5735.03
same,"Ion intensities, Mean: CITRATE",1682.49
same,"Ion intensities, Mean: CMP",688.26
same,"Ion intensities, Mean: Carnosine",1422.99
same,"Ion intensities, Mean: Choline",8899.36
same,"Ion intensities, Mean: Creatine",89712.34
same,"Ion intensities, Mean: Cysteineglutathione disulfide",1531.40
same,"Ion intensities, Mean: Cytidine",846.95
same,"Ion intensities, Mean: Cytidine 2′,3′-cyclic phosphate",356.88
same,"Ion intensities, Mean: Cytidine diphosphate choline (CDPcholine)",2658.54
same,"Ion intensities, Mean: D-GLUCOSE 6-PHOSPHATE",138.50
same,"Ion intensities, Mean: D-Glucaro-1,4-lactone",1887.47
same,"Ion intensities, Mean: D-RIBOSE 5-PHOSPHATE",136.10
same,"Ion intensities, Mean: DESMOSTEROL",15551.25
same,"Ion intensities, Mean: DIHYDROOROTATE",91.24
same,"Ion intensities, Mean: Deoxycytidine",665.81
same,"Ion intensities, Mean: Deoxyguanosine",2401.12
same,"Ion intensities, Mean: Docosahexaenoic acid",2873.42
same,"Ion intensities, Mean: Docosenamide",20845.53
same,"Ion intensities, Mean: Dodecanedioic acid",333.82
same,"Ion intensities, Mean: ERUCIC ACID",98.90
same,"Ion intensities, Mean: ETHANOLAMINE PHOSPHATE",441.02
same,"Ion intensities, Mean: Ergothioneine",515.38
same,"Ion intensities, Mean: Ethyl nicotinate",81.18
same,"Ion intensities, Mean: GLUTAMIC ACID",9048.31
same,"Ion intensities, Mean: GLUTAMINE",22688.89
same,"Ion intensities, Mean: GUANOSINE 5′-MONOPHOSPHATE",4141.69
same,"Ion intensities, Mean: Glutamate",53559.34
same,"Ion intensities, Mean: Glutathione",232313.32
same,"Ion intensities, Mean: Glycerophosphocholine",124857.55
same,"Ion intensities, Mean: Guanosine monophosphate",845.86
same,"Ion intensities, Mean: HEPTADECANOATE",23.50
same,"Ion intensities, Mean: HISTIDINE",1129.76
same,"Ion intensities, Mean: Homocarnosine",689.23
same,"Ion intensities, Mean: Homoserine",1034.62
same,"Ion intensities, Mean: Hydroxybutyric acid",2833.09
same,"Ion intensities, Mean: Hydroxyphenethylamine",4074.28
same,"Ion intensities, Mean: Hypoxanthine",88.42
same,"Ion intensities, Mean: Hypusine",196.91
same,"Ion intensities, Mean: ISOCITRIC ACID",2051.66
same,"Ion intensities, Mean: ISOLEUCINE",1578.44
same,"Ion intensities, Mean: Indoleacetaldehyde",523.18
same,"Ion intensities, Mean: Inosine",1409.62
same,"Ion intensities, Mean: Inosine 5′-monophosphate (IMP)",5581.09
same,"Ion intensities, Mean: Isostearic acid",1901.95
same,"Ion intensities, Mean: L-2-Amino-5-hydroxypentanoicacid",2343.03
same,"Ion intensities, Mean: L-OLEOYL-RAC-GLYCEROL",2628.37
same,"Ion intensities, Mean: LACTATE",3144.80
same,"Ion intensities, Mean: LAUROYLCARNITINE",277.93
same,"Ion intensities, Mean: LEUKOTRIENE B4",30.73
same,"Ion intensities, Mean: LYSINE",107.27
same,"Ion intensities, Mean: Lathosterol",14569.93
same,"Ion intensities, Mean: Lipoamide",114.97
same,"Ion intensities, Mean: MALATE",1664.52
same,"Ion intensities, Mean: Methionine",2031.63
same,"Ion intensities, Mean: Methylthioadenosine",3521.96
same,"Ion intensities, Mean: Myristoylcarnitine",1303.77
same,"Ion intensities, Mean: N,N-dimethyl-Safingol",578.09
same,"Ion intensities, Mean: N-(1-Deoxy-1-fructosyl) serine",4331.01
same,"Ion intensities, Mean: N-ACETYL-L-ASPARTICACID",25975.80
same,"Ion intensities, Mean: N-ACETYLNEURAMINATE",1670.91
same,"Ion intensities, Mean: N-Acetyl-Glutamic acid",205.45
same,"Ion intensities, Mean: N-Acetyl-L-alanine",1909.11
same,"Ion intensities, Mean: N-Acetylaspartylglutamic acid",2955.57
same,"Ion intensities, Mean: N-Acetylglutamine",519.28
same,"Ion intensities, Mean: N-Acetylisoputreanine",153.75
same,"Ion intensities, Mean: N-Acetyllactosamine",273.32
same,"Ion intensities, Mean: N-Linoleoyl GABA",54.12
same,"Ion intensities, Mean: N-Methyl-Glutamate",2772.85
same,"Ion intensities, Mean: N-a-Acetyl-Arginine",270.36
same,"Ion intensities, Mean: NAD",1268.92
same,"Ion intensities, Mean: NE,NE,NE-TRIMETHYLLYSINE",3943.68
same,"Ion intensities, Mean: Niacinamide",5120.54
same,"Ion intensities, Mean: Nicotinamide adenine dinucleotide (NAD)",37985.70
same,"Ion intensities, Mean: O-Phosphoethanolamine",302.71
same,"Ion intensities, Mean: Octadecenoic acid",169.48
same,"Ion intensities, Mean: Oleamide",3677.58
same,"Ion intensities, Mean: Oxidized glutathione",4537.22
same,"Ion intensities, Mean: PALMITATE",1211.29
same,"Ion intensities, Mean: PALMITOLEIC ACID",39.36
same,"Ion intensities, Mean: PANTOTHENIC ACID",524.89
same,"Ion intensities, Mean: PETROSELINIC ACID",142.54
same,"Ion intensities, Mean: PHENYLALANINE",2973.73
same,"Ion intensities, Mean: PHENYLETHANOLAMINE",1559.27
same,"Ion intensities, Mean: Phenylpropionylglycine",431.18
same,"Ion intensities, Mean: Phosphocholine",23860.56
same,"Ion intensities, Mean: Phosphodimethyl-ethanolamine",269.92
same,"Ion intensities, Mean: Pipecolic acid",516.02
same,"Ion intensities, Mean: Propionylcarnitine",540.78
same,"Ion intensities, Mean: Pyridoxamine-5′-Phosphate",484.54
same,"Ion intensities, Mean: RAC-GLYCEROL-L-MYRISTATE",283.53
same,"Ion intensities, Mean: S-Adenosylhomocysteine",473.94
same,"Ion intensities, Mean: S-Adenosylmethionine",18868.04
same,"Ion intensities, Mean: SERINE",483.60
same,"Ion intensities, Mean: SUCCINATE",304.14
same,"Ion intensities, Mean: Spermic acid 1",199.76
same,"Ion intensities, Mean: Spermidine",7809.52
same,"Ion intensities, Mean: Sphinganine",23.16
same,"Ion intensities, Mean: Sphinganine 1-phosphate",1966.99
same,"Ion intensities, Mean: Sphingosine",1163.81
same,"Ion intensities, Mean: Stearoylglycerophosphoserine",1831.40
same,"Ion intensities, Mean: Succinyladenosine",217.97
same,"Ion intensities, Mean: TAURINE",6801.22
same,"Ion intensities, Mean: THEOPHYLLINE",18.56
same,"Ion intensities, Mean: TRYPTOPHAN",1355.41
same,"Ion intensities, Mean: Tetradecanedioic acid",115.20
same,"Ion intensities, Mean: Tetrahydrodeoxycortisol",2674.78
same,"Ion intensities, Mean: Threoninyl-Alanine",295.96
same,"Ion intensities, Mean: Tyrosine",6818.63
same,"Ion intensities, Mean: URIDINE",1161.25
same,"Ion intensities, Mean: URIDINE 5′-DIPHOSPHOGALACTOSE",1728.73
same,"Ion intensities, Mean: URIDINE-5-MONOPHOSPHATE",3704.01
same,"Ion intensities, Mean: Undecanedicarboxylic acid",219.08
same,"Ion intensities, Mean: Uracil",225.61
same,"Ion intensities, Mean: Uridine 5′-diphosphate",422.30
same,"Ion intensities, Mean: Xanthine",155.79
same,"Ion intensities, Mean: cyclic GMP-AMP",2077.75
same,"Ion intensities, Mean: diethyltoluamide",5.17
same,"Ion intensities, Mean: docosa-hexaenoic acid",1911.88
same,"Ion intensities, Mean: hydroxyhexadecanoyl carnitine",1048.02
same,"Ion intensities, Mean: hydroxyvitamin D3",21210.39
same,"Ion intensities, Mean: sn-glycero-3-Phosphoethanolamine",994.53
